Measured values reported in US20070141661A1, “Cell extract for high-functioned cell-free protein synthesis and method of preparing the extract” (priority 2003, published 2007).

Tests used:
[1] = tested on: wheat embryo cell-free protein synthesis; assay: Wheat embryo cell-free protein synthesis, batch method, 14C-leucine incorporation with DHFR mRNA; type: biochemical; conditions: for Effect on protein synthesis when added back in an equivalent amount to highly functionalized protein synthesis solution: filtrate or components isolated from filtrate, FIG. 1B/2B; for Inhibition of protein synthesis, nucleotide added alone: 0.5 mM AMP or 0.25 mM GMP alone, not shown in figures; for Effect of standard sugar on protein synthesis: final concentration 0.5 mM, FIG. 2C; for Time until protein synthesis reaction terminated after adding back: filtrate or filtrate-derived component added in equivalent amount
Description: To an embryo extract solution, components necessary for translation were added and adjusted to prepare a translation reaction solution (30 mM HEPES-KOH, pH7.8, 100 mM potassium acetate, 2.7 mM magnesium acetate, 1.2 mM ATP, 0.25 mM GTP, 0.4 mM spermidine, 16 mM phosphocreatine, 40 μg/ml creatine kinase, 4 mM dithiothreitol, each 0.3 mM 19 kinds of leucine-lacking L-amino acids, and 0.005% sodium azide). The concentration of the embryo extract solution was 40 OD 260 nm per 1 ml of translation reaction solution). To this translation reaction solution, mRNA encoding dihydrofolate reductase (DHFR) (0.32 mg/ml) and ^14C-leucine were added, and protein synthesis was conducted at 26° C. through a batch method. The amount of synthesized protein was determined by measuring radioactivity of ^14C-labeled leucine incorporated into an acid-insoluble fraction as follows: a 3MM Whatman filter was blotted with […] of the reaction solution, and the filter was dipped into an ice-cold 10% TCA (trichloroacetic acid) for an hour, and then boiled in 5% TCA solution for 10 minutes. This filter was recovered and from which TCA and water were removed using ethanol and ether (50:50 vol), dried, and then radioactivity incorporated into a heat-TCA-insoluble fraction was measured by a liquid scintillation counter (toluene scintillator).
Using these embryo extracts, following the method described in Example 1, and under a condition where the concentration of extract solution was 40 OD 260 nm, protein synthesis was conducted and their synthesis activities were compared. The activities of protein synthesis were determined by measuring radioactivities of ^14C/5 μL reaction solution, wherein ^14C had been incorporated into a heat-acid-insoluble fraction after a three hour-long reaction. As gelfiltration operation proceeded, the concentration of glucose in an extract solution was decreased, and completely corresponding to that, the activity of protein synthesis was increased, and simultaneously an extremely stabilized reaction solution for protein synthesis was produced.

ATP in reaction solution = assay: Temporal change of ATP concentration during protein synthesis reaction (cellulose thin layer chromatography, UV 260 nm); type: biochemical, wheat; conditions: for Concentration of ATP in system after adding sugar: 0.5 mM, within an hour after reaction, data not shown
Description: Next, to study the relation between decrease in concentration of ATP and the inhibition and destabilization mechanism of protein synthesis reaction, temporal changes of concentration of ATP under incubation was measured in the present and absence of glucose. Experiment was conducted on chromatography using a cellulose thin layer plate (Avicel: purchased from Funakoshi Co., Ltd) and a developing solvent of isobutyric acid:0.5 M ammonia (5:3). Using a synthesis system prepared with an extract solution treated through Amicon ultramembrane six times, protein synthesis reaction was conducted with or without adding glucose (1 mM), and to samples fractionated with time, an equivalent amount of cold ethanol was added, then supernatants obtained from centrifugation at 10,000×g were used to fractionate nucleotides on a thin layer plate. Using standard nucleotides from a conventional method as a fractionation marker, ATP was extracted from fractions, which was scraped out from fluorescent blots visualized with irradiation of ultraviolet ray, and the values of ultraviolet absorption at 260 nm were measured, thereby temporary changes of concentration of ATP in a reaction solution were determined. In an experiment where glucose was not added, as reaction proceeded, the concentration of ATP in the reaction solution was decreased (large ● in FIG. 3B) and in three hours after the reaction, decreased to around 60%. Kinetics of this decrease in concentration of ATP is well consistent with a decrease in the concentration of glucose (● in FIG. 3A). […] Though data are not shown, when protein synthesis reaction was conducted using an extract solution of 25 OD 260 nm, a decrease in the concentration of ATP was hardly shown until four hours after reaction, and along with it, the protein synthesis reaction was sustained linearly almost for four hours.

[2] = tested on: wheat embryo cell-free protein synthesis; assay: Stability of protein synthesis activity after 3 h preincubation at 26° C. without mRNA, then solution exchange; type: biochemical; conditions: 0.5 mM, no mRNA or 14C-leucine during incubation, FIG. 2C
Description: Next, destabilization of protein synthesis was further examined. Namely, samples obtained before and after Amicon ultra-centrifugal filtration as described above (but mRNA and ^14C-leucine had not been contained), were incubated for three hours at 26° C. (hereinafter, described as preincubation), and then both reaction solutions were respectively passed through Sephadex G25 spin column which had been equilibrated with a translation solution (containing amino acids, energy sources, various ions and buffer) for changing to a fresh translation solution, and after that, mRNA and ^14C-leucine were added to measure the activity of protein synthesis.
Next, to confirm the destabilization phenomena of protein synthesis system resulting from the addition glucose and preincubation, the system was incubated in the presence of 0.5 mM glucose (the system contained neither mRNA or ^14C-leucine) and the stability was examined in the same manner as explained in FIG. 1B.

Question: For `OC[C@H]1O[C@H](OC[C@H]2O[C@H](O[C@]3(CO)O[C@H](CO)[C@@H](O)[C@@H]3O)[C@H](O)[C@@H](O)[C@@H]2O)[C@H](O)[C@@H](O)[C@H]1O` [raffinose], which “Effect on protein synthesis when added back in an equivalent amount to highly functionalized protein synthesis solution” value (“Effect on protein synthesis” below) [1] is on record?
Answer: The value was “did not show inhibitory effects”.

Question: How did the “Inhibition of protein synthesis, nucleotide added alone” value [1] turn out when `Nc1ncnc2c1ncn2[C@@H]1O[C@H](COP(=O)(O)O)[C@@H](O)[C@H]1O` [AMP] was run?
Answer: Its value is “inhibition of protein synthesis was not exhibited”.

Question: What does the source list for `O=C[C@@H](O)[C@H](O)[C@@H](O)[C@@H](O)CO` [L-glucose]?
Answer: ATP remained after adding sugar (ATP in reaction solution; 1 mM added, FIG. 3B): ~50%; Effect of standard sugar on protein synthesis [1]: no inhibitory effects

Question: Which “Effect of standard sugar on protein synthesis” value (shortened to “Effect of standard sugar”) [1] does the source give for `O=C[C@H](O)[C@@H](O)[C@H](O)[C@H](O)COP(=O)(O)O` [glucose-6-phosphate] here?
Answer: Its value is “strong protein synthesis inhibitory effects”.

Question: With `Nc1nc2c(ncn2[C@@H]2O[C@H](COP(=O)(O)O)[C@@H](O)[C@H]2O)c(=O)[nH]1` [GMP] as the compound, how does the “Inhibition of protein synthesis, nucleotide added alone” value [1] read?
Answer: Its value is “inhibition of protein synthesis was not exhibited”.

Question: How did the “ATP in the reaction solution after adding sugar” value (ATP in reaction solution; 1 mM added, in an hour, FIG. 3B) turn out when `O=C[C@H](O)[C@@H](O)[C@H](O)[C@H](O)CO` [glucose, D-glucose] was run?
Answer: The value was “almost all ATP in the reaction solution was consumed”.

Question: And the “Protein synthesis capacity after preincubation in the presence of sugar” value [2]?
Answer: Its value is “irreversibly inactivates a protein synthesis capacity”.

Question: What about the “Effect on protein synthesis” value [1] of the same compound?
Answer: The value was “strong inhibitory and destabilization effects”.

Question: What about the “Time until protein synthesis reaction terminated after adding back” value [1] of the same compound?
Answer: Its value is “two”.

Question: And the “Effect of standard sugar” value [1]?
Answer: Its value is “strong protein synthesis inhibitory effects”.

Question: How did the “Effect of standard sugar” value [1] turn out when `C=C(OP(=O)(O)O)C(=O)O` [Phosphoenolpyruvic acid] was run?
Answer: The value was “no inhibitory effects on protein synthesis”.

Question: With `OC[C@H]1O[C@@](CO)(O[C@H]2O[C@H](CO)[C@@H](O)[C@H](O)[C@H]2O)[C@@H](O)[C@@H]1O` [sucrose] as the compound, how does the “Concentration of ATP in system after adding sugar” value (“Concentration of ATP in system” below) (ATP in reaction solution) read?
Answer: The value was “below the detection limit”.

Question: What about the “Effect on protein synthesis” value [1] of the same compound?
Answer: Its value is “strong inhibitory and destabilization effects”.

Question: And the “Time until protein synthesis reaction terminated after adding back” value [1]?
Answer: The value was “two”.

Question: What about the “Effect of standard sugar” value [1] of the same compound?
Answer: Its value is “strong protein synthesis inhibitory effects”.

Question: Which “Effect of standard sugar” value [1] does the source give for `CC(=O)C(=O)O` [pyruvic acid] here?
Answer: Its value is “no inhibitory effects on protein synthesis”.

Question: How did the “Concentration of ATP in system” value (ATP in reaction solution) turn out when `O=C(CO)[C@@H](O)[C@H](O)[C@H](O)CO` [fructose] was run?
Answer: The value was “below the detection limit”.

Question: What about the “Effect of standard sugar” value [1] of the same compound?
Answer: The value was “strong protein synthesis inhibitory effects”.

Question: For `O=C[C@H](O)[C@@H](O)[C@@H](O)[C@H](O)CO` [galactose], which “Concentration of ATP in system” value (ATP in reaction solution) is on record?
Answer: The value was “below the detection limit”.

Question: And the “Effect of standard sugar” value [1]?
Answer: The value was “strong protein synthesis inhibitory effects”.
